We go through 7 compounds from US20190117616A1, “METHOD FOR REGULATING KDM4A, KDM4B, AND KDM4C ACTIVITY” (National Tsing Hua University, priority 2017, published 2019).

In one data set the target is T1, KDM4B (Homo sapiens, UniProt O94953).
T1 sequence (O94953 1-1096): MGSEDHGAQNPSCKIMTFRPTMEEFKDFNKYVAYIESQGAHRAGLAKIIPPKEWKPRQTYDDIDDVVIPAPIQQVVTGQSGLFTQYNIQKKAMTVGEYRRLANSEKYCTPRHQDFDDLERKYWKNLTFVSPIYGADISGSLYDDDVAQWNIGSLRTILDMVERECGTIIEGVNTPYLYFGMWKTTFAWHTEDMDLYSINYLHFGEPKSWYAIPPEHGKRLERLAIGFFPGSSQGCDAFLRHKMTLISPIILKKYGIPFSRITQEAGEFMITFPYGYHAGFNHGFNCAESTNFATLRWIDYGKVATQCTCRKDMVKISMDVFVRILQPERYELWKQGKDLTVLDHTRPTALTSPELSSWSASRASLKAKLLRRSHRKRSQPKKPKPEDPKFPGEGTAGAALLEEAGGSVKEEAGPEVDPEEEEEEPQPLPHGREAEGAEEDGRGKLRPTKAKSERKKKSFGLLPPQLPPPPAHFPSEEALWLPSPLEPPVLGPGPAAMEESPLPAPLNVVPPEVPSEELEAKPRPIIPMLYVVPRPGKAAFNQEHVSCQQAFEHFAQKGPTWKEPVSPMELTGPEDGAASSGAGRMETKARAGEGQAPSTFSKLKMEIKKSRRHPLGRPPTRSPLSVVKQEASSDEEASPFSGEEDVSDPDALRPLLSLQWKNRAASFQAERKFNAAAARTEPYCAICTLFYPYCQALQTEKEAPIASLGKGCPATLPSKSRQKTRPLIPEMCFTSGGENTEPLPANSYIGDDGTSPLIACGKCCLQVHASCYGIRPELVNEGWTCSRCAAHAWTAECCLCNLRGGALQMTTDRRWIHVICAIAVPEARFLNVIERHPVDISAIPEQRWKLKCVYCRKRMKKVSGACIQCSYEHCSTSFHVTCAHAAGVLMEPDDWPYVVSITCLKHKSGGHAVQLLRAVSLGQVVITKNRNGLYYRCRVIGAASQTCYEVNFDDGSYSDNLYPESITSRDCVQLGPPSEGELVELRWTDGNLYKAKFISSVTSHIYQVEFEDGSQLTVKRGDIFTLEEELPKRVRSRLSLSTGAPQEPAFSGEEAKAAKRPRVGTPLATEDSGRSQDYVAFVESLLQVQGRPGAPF
Nature of the data set: KDM4B enzymatic inhibition (residual activity, IC50, kinetics). Particulars: for Inhibitory effects of Myricetin analogues against KDM4B activity: Table 1 (not given), 100 μM compounds. The class given is biochemical.

In the next data set the test system is herpes virus. Particulars: literature; cited from earlier work.
For the next data set, the target named is T2, JMJD2E/KDM4E (Homo sapiens, UniProt B2RXH2).
T2 sequence (B2RXH2 1-506): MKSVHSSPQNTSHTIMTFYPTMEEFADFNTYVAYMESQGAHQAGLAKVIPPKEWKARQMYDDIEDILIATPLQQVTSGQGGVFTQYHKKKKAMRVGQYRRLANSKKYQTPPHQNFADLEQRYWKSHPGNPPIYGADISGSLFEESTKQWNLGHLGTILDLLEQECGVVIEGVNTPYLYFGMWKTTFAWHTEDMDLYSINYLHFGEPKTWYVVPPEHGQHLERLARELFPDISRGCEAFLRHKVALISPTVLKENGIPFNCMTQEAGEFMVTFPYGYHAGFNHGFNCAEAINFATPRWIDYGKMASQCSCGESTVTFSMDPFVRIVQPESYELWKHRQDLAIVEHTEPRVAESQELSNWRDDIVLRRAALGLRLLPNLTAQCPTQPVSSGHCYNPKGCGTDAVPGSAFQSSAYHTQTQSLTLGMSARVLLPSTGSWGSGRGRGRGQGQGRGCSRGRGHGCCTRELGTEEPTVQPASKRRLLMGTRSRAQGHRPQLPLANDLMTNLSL
To be noted: in vitro, literature; cited from earlier work.

The conditions of data set [1]: literature; cited from earlier work.
The target of data set [2] is T3, KDM4C (Homo sapiens, UniProt Q9H3R0).
T3 sequence (Q9H3R0 1-1056): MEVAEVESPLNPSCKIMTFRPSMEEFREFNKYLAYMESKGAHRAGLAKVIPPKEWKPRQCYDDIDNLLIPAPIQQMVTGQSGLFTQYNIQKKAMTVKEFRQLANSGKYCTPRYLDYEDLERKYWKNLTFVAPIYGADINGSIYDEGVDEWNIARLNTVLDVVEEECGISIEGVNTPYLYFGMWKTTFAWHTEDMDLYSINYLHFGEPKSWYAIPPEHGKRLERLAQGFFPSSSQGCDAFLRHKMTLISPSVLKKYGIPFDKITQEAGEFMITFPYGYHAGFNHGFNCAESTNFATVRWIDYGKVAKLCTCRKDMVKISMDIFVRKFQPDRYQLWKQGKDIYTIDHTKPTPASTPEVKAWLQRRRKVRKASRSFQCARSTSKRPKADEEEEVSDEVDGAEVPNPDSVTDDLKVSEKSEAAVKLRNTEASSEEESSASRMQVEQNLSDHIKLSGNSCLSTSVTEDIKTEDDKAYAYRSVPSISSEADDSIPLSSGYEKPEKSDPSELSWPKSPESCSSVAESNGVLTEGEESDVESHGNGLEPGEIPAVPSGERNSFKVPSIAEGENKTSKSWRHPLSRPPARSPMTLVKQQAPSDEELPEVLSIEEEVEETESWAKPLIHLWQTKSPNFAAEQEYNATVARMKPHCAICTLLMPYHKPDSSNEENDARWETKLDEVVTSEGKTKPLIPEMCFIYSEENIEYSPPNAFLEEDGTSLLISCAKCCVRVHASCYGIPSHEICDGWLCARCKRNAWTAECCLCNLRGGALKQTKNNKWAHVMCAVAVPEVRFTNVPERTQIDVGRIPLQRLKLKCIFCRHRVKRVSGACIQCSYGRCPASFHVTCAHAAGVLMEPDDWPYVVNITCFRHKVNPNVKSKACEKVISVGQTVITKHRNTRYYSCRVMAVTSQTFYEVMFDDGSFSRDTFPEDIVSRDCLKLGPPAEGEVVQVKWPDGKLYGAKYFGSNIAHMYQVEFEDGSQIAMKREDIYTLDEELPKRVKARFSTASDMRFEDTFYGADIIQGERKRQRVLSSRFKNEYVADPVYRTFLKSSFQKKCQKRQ
Particulars: toward α-ketoglutarate, FIG. 2A.

For data set [3], the system named is H3K9me3/H3K36me3 in C4-2B cells. Nature of the data set: H3K9me3 and H3K36me3 levels in treated C4-2B cells, western blot. The class given is cell-based. Particulars: treated for two days, cell lysates. An excerpt: FIG. 5B: H3K9me3 and H3K36me3 levels in Myricetin-treated C4-2B cells for two days. The H3K9me3 and H3K36me3 signals are detected in cell lysates by western blot analysis.
(§1) Whether Myricetin blocked cell growth of AR+ cells was next evaluated.
For orientation: A western blot detects proteins with antibodies after separation by electrophoresis.

The subject of data set [4] is C4-2B xenografts. Nature of the data set: C4-2B xenograft tumor growth in nude mice. The class given is in vivo. To be noted: C4-2B xenograft model.
The test system of data set [5] is C4-2B cells. Nature of the data set: Cell viability of C4-2B, PLGA-Myricetin versus free Myricetin. To be noted: read-out: IC50, cell viability (cytotoxicity) of C4-2B cells.
The test system of data set [6] is C4-2B cells. Nature of the data set: MTT cell proliferation assay, C4-2B. The data set is classed as cell-based. Particulars: different concentrations over 4 days.
Excerpt: as §1
(In general: Tetrazolium dyes change colour on reduction, which living cells bring about.)

The next data set concerns PZ-HPV-7 cells. Nature of the data set: MTT assay, immortalized normal PZ-HPV-7. The class given is cell-based. To be noted: different concentrations over 4 days.
Excerpt: as §1

Data set [7] deals with T3, KDM4C. Nature of the data set: H3 demethylation by bacteria-expressed KDM4C, western blot. The data set is classed as biochemical. To be noted: 100 μM inhibitor, 10 μM enzyme, 5 μM H3, 37° C., 30 min.
For data set [8], the system named is C4-2B cells.
In the next data set the test system is LNCaP cells. The experiment in a line: MTT cell growth assay, LNCaP. The data set is classed as cell-based. To be noted: different concentrations over 4 days.
Excerpt: as §1

In data set [9] the test system is C4-2B xenografts. Nature of the data set: Ki-67 and CD31 immunohistochemistry of xenograft tumor sections. The class given is in vivo, nude mice. To be noted: FIG. 7B. The protocol: FIG. 7B: Ki-67 and CD31 immunohistochemistry staining of the tumor sections isolated from the xenografts.
The endothelial cell-specific marker CD31 in xenografts was also determined.

As for `O=c1c(O)c(-c2ccc(O)c(O)c2)oc2c(O[C@@H]3O[C@H](CO)[C@@H](O)[C@H](O)[C@H]3O)c(O)cc(O)c12` [Gossypin], the “Inhibitory effects of Myricetin analogues against KDM4B activity” value on KDM4B is given as “significant inhibitory effects”.

On to `COc1cc(-c2oc3cc(O)cc(O)c3c(=O)c2O)ccc1O` [Isorhamnetin], for which, at KDM4B, the “Inhibitory effects of Myricetin analogues against KDM4B activity” value was “significant inhibitory effects”.

Turning to `O=c1c(O)c(-c2ccc(O)cc2)oc2cc(O)cc(O)c12` [Kaempferol], the “Inhibitory effects of Myricetin analogues against KDM4B activity” value at KDM4B is on record as “significant inhibitory effects”.

On to `CN(C)CCCNC(=O)c1ccc(-c2cc(O)c3ncccc3c2)cc1` [ML324], for which, in the data set on herpes virus, the “KDM4A-dependent herpes virus-mediated replication in infected cells” value was “blocked”. Further, at JMJD2E/KDM4E, the “Inhibitory activity toward JMJD2E/KDM4E” value is “submicromolar”. In data set [1], the Cell permeability result was “good” and the “In vitro ADME properties” value is given as “good”.

As usually defined, the IC50 is the midpoint of a concentration-inhibition curve. Take `O=c1c(O)c(-c2cc(O)c(O)c(O)c2)oc2cc(O)cc(O)c12` [Myricetin]: the “Enzymatic inhibitory kinetics, mode (KDM4C)” value at KDM4C [2] is given as “competitive mode”. In data set [3], the “H3K9me3 level in C4-2B cells” value was “dose-dependent increased level” and the “H3K36me3 signal in C4-2B cells” value was “relatively comparable signal”. For the same compound, the “Antitumor activity compared with the vehicle control group” value in the data set with C4-2B xenografts [4] is “significant antitumor activity”. Further, the IC50 in the data set with C4-2B cells [5] worked out at 38.3 µM. In addition, the “Cell proliferation of C4-2B” value in the data set on C4-2B cells [6] is “blocked”. For the same compound, the “Effect on immortalized normal PZ-HPV-7 line” value in the data set with PZ-HPV-7 cells was “essentially no effect”. For the same compound, at KDM4C [7], the “Demethylation of H3K9me3 by KDM4C” value is on record as “significantly reduced such an activity”. In addition, the “Cytotoxic effect alone, compared with enzalutamide alone” value with C4-2B cells [8] was “better cytotoxic effect”. At KDM4B, this compound displayed an IC50 of 1300 nM. In addition, the “Enzymatic inhibitory kinetics, mode (KDM4B)” value at KDM4B (toward α-ketoglutarate, FIG. 2A) is “competitive inhibition mode”. The “Cell growth of LNCaP” value with LNCaP cells is “significantly reduced level of cell growth”.

Regarding `O=c1c(O)c(-c2ccc(O)c(O)c2)oc2cc(O)cc(O)c12` [Quercetin], the “Inhibitory effects of Myricetin analogues against KDM4B activity” value at KDM4B was “significant inhibitory effects”.

Regarding `CNC(=O)c1ccc(N2C(=S)N(c3ccc(C#N)c(C(F)(F)F)c3)C(=O)C2(C)C)cc1F` [enzalutamide], the “Antitumor activity compared with the vehicle control group” value in the data set with C4-2B xenografts [4] is recorded as “significant antitumor activity”. Also, in the data set with C4-2B xenografts [9], the “Endothelial cell-specific marker CD31 in xenografts” value was “significantly higher level of CD31 was seen in the vehicle group” and the “Expression of proliferation marker Ki-67 in xenografts” value is given as “significantly lower expression”.
